Results on twelve molecules are retold here after patent US11130780B2, “Inhibitors of growth factor activation enzymes” (Washington University, priority 2015, dated 2021).

The target in experiment [1] is T1, matriptase (Homo sapiens, UniProt Q9Y5Y6).
T1 construct: Charles Craik, UCSF (obtained from another laboratory)
T1 sequence (Q9Y5Y6 615-855 limits assumed): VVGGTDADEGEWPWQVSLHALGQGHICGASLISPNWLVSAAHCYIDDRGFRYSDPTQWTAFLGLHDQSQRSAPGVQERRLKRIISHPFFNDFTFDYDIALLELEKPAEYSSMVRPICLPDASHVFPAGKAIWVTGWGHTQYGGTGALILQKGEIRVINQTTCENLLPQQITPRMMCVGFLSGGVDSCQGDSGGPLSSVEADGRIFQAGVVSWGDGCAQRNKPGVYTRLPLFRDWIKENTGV
Nature of the experiment: Km determination of fluorogenic substrate with matriptase. Format: biochemical. The procedure:
(§1) In black 384 well plates (Corning #3575), 12.5 nM HGFA was mixed with various amounts of Boc-QLR-AMC and 1 nM matriptase and 0.3 nM hepsin were mixed with various amounts of Boc-QAR-AMC. Changes in fluorescence (excitation at 380 nm and emission at 460 nn) were measured at room temperature over time in a Biotek Synergy 2 plate reader (Winnoski, Vt.). Using plots of the mean reaction velocity versus substrate concentration and the Michaelis-Menten enzyme kinetics equation within GraphPad Prism version 6.04 for Windows (GraphPad Software, San Diego, Calif., www.graphpad.com), the reaction Vmax and subsequent Km for each of the substrates were determined.

Experiment [2] concerns the target T2, HGFA (Homo sapiens, UniProt Q04756).
T2 construct: His6 tag (N); seven amino acid spacer and seven amino acid TEV cleavage site (N); Honey Bee melittin signal peptide (N); made in house; host or cells: High 5 insect cells (baculovirus; virus raised in Sf9)
T2 sequence (Q04756 373-655): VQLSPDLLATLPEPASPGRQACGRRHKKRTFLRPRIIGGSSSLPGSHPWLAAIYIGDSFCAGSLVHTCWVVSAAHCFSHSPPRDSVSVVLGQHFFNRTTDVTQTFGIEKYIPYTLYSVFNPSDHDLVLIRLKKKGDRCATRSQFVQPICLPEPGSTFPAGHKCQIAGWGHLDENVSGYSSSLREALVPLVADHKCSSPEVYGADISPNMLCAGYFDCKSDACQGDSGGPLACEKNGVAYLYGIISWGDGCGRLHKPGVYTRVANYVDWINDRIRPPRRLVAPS
Briefly: Km determination of fluorogenic substrate with HGFA. Format: biochemical. Here is the method: as §1

In experiment [3] the target is Factor Xa (Homo sapiens, UniProt P00742). Briefly: Chromogenic kinetic enzyme assay of Factor Xa. Format: biochemical. Here is the method: Inhibitors (11-pt serial dilutions, 0-20 μM final concentration) were serially diluted in DMSO (2% DMSO final concentration) and then mixed with recombinant thrombin (0.15 nM final concentration) or Factor Xa (0.35 nM final concentration) in TNC buffer (25 mM Tris, 150 mM NaCl, 5 mM CaCl2, 0.01% TRITON X-100, pH 8) using clear 384 well plates. […] Changes in absorbance at 405 nm were measured over time in a Biotek Synergy 2 plate (Winnoski, Vt.). Using GraphPad Prism version 6.04 software program, (GraphPad Software, San Diego, Calif., www.graphpad.com), a four parameter curve fit was used to determine the inhibitor IC50s from a plot of the mean reaction velocity versus the inhibitor concentration. Ki values were calculated from the IC50 values using the Cheng and Prusoff equation (Ki=IC50/(1+[S]/Km).

Experiment [4] has as its target T3, hepsin (Homo sapiens, UniProt P05981).
T3 construct: purchased R&D Systems 4776-SE-010
Nature of the experiment: Fluorescent kinetic enzyme inhibitor assay of hepsin. The format is biochemical. The note with it: Table 9.1; Fluorogenic Assay; read-out: Hepsin Ki. The method, boiled down:
(§2)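 Fluorescence (ex 380/em 460 nm) followed kinetically at room temperature; IC50 from four-parameter fit of mean velocity versus concentration, averaged over three experiments.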

The target in experiment [5] is thrombin (Homo sapiens, UniProt P00734). Briefly: Chromogenic kinetic enzyme assay of thrombin. Format: biochemical. A digest of the protocol: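 Recombinant human thrombin (0.15 nM) or Factor Xa (0.35 nM) was mixed with 11-point inhibitor dilutions (0–20 μM, 2% DMSO) in TNC buffer, pH 8. Kinetic absorbance at 405 nm gave velocities. IC50 came from a four-parameter fit and Ki from Cheng–Prusoff.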

The target in experiment [6] is T1, matriptase. Nature of the experiment: Fluorescent kinetic enzyme inhibitor assay of matriptase. The note with it: Fluorogenic Assay. The format is biochemical. A digest of the protocol:
as §2

In experiment [7] the target is T2, HGFA. Briefly: Fluorescent kinetic enzyme inhibitor assay of HGFA. Format: biochemical. The note with it: for Ki: Fluorogenic Assay, read-out: HGFA Ki. A digest of the protocol: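 Recombinant His-tagged HGFA residues 373-655 from insect cells, with substrate at Km. Inhibitors in 11-point dilutions, 0-20 μM final, 2% DMSO, fluorescence (ex 380/em 460 nm) followed over time at room temperature. IC50 from four-parameter fit of mean velocity, average of three experiments.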

In experiment [8] the target is Trypsin. Nature of the experiment: Trypsin selectivity assay. Format: biochemical.
Experiment [9] deals with MDA-MB-231 cells. Nature of the experiment: MRC5-mediated migration and invasion of MDA-MB-231 cells through Matrigel. Format: cell-based, human. The note with it: 1 μM, 24 hour. The procedure:
MRC5 fibroblasts were plated in the bottom well of a Boyden chamber, and incubated overnight to condition the attractant media. The following day, MDA-MB-231 or T47D cells+/−inhibitors were plated above on Matrigel coated inserts (8.0 μm membrane inserts, 12-well; Corning 3422) and incubated in FBS media overnight. Inhibitors were added to fresh media and then cells were plated above on the inserts. The cells were fixed and stained at the 24 hour time point. The inserts were then removed and mounted on glass plates where the number of migrated cells were imaged and counted at 4 fields per membrane using a light microscope at 20×.

Experiment [10] concerns the target T4, HGFA (Homo sapiens, UniProt Q04756).
T4 sequence (Q04756 408-655 limits assumed): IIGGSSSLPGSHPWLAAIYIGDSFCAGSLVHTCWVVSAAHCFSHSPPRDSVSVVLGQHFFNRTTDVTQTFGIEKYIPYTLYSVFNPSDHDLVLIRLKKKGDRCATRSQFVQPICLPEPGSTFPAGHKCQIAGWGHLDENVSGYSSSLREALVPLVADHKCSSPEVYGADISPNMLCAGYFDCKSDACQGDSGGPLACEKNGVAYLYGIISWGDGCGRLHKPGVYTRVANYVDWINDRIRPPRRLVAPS
T4 sequence (Q04756 373-407 partner limits assumed): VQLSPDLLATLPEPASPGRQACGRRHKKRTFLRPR
Nature of the experiment: Kinetic parameters of ACC substrates (Table 11.4). The format is biochemical. The source says: Results for MSP-MS profiling for HGFA substrate cleavage and specificity can be seen in FIG. 20 and Tables 11.1-11.4. IceLogo graphs can be seen in FIGS. 21A and 21B.

[11] abbreviates: Table 6.2, headed Fluorogenic Assay.
Where [12] appears, read: Table 6.2, headed Fluorogenic Assay, read-out: Factor Xa Ki.
The mark [13] stands for this setting: Table 6.2, headed Fluorogenic Assay, read-out: Thrombin Ki.

Like-named read-outs stand apart in the source and are kept apart here. Residues, ends and D or L forms follow the SMILES beside them. *: point of attachment. AMC = Cc1cc(=O)oc2cc(N*)ccc12; Boc = CC(C)(C)OC(=O)* Some results are limits rather than exact numbers.

Factor Xa, sequence (P00742 235-488 limits assumed): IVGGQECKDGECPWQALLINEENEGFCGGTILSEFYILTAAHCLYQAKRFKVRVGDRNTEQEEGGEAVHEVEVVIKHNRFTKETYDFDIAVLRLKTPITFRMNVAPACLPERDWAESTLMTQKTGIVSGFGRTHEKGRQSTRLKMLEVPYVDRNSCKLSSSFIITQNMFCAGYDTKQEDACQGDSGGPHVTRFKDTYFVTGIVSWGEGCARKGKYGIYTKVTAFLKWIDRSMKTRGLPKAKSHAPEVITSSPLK
Factor Xa, sequence (P00742 41-179 partner limits assumed): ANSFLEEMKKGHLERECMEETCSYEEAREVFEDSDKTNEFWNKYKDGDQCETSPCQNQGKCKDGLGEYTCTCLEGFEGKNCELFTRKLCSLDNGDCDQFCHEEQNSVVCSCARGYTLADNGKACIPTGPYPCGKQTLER
T3 sequence (P05981 163-417 limits assumed): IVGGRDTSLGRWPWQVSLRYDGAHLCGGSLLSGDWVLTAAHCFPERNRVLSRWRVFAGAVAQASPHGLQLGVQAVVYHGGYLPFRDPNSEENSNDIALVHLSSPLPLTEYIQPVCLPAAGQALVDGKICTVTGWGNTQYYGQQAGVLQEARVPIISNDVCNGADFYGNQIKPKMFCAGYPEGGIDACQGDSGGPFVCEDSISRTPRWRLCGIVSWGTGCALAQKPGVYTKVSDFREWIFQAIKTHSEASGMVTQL
T3 sequence (P05981 45-162 partner limits assumed): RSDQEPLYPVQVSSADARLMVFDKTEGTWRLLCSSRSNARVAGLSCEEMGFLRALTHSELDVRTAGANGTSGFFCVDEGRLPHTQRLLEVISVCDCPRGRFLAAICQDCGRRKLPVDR

Regarding `Cc1cc(=O)oc2cc(NC(=O)[C@H](CCCNC(=N)N)NC(=O)[C@H](C)NC(=O)[C@H](CCC(N)=O)NC(=O)OC(C)(C)C)ccc12` [Boc-QAR-AMC] (Boc-Gln-Ala-Arg-{AMC}), the Km in experiment [1] came out at 93 µM.

`Cc1cc(=O)oc2cc(NC(=O)[C@H](CCCNC(=N)N)NC(=O)[C@H](CC(C)C)NC(=O)[C@H](CCC(N)=O)NC(=O)OC(C)(C)C)ccc12` [Boc-QLR-AMC] (Boc-Gln-Leu-Arg-{AMC}): the Km in [2] amounted to 37 µM.

With `N=C(N)c1cccc(C[C@H](NS(=O)(=O)c2ccc3ccccc3c2)C(=O)N2CCN(C(=O)NCc3ccc(Br)cc3)CC2)c1` [Compound 25a, (S)—N-(4-Bromobenzyl)-4-(3-(3-carbamimidoylphenyl)-2-(naphthalene-2-sulfonamido)propanoyl)piperazine-1-carboxamide], the inhibition constant Ki in experiment [3] (Table 9.4, read-out: Factor Xa Ki) worked out at 4560 nM; in [4], 48 nM; in experiment [5] (Table 9.4, read-out: Thrombin Ki), 3110 nM; in [6] (Table 9.1), 4200 nM; in experiment [7] (Table 9.1) it was 16200 nM; in experiment [8] (Table 9.4), 2.2 nM.

For the molecule `CC(=O)N[C@@H](CCCCN)C(=O)N[C@@H](CCC(N)=O)C(=O)N[C@@H](CC(C)C)C(=O)N[C@@H](CCCNC(=N)N)C(=O)c1nc2ccccc2s1` [Compound 7006, Ac-KQLR(SEQ ID NO: 1)-Kbt], the inhibition constant Ki in [3] is 129 nM; in experiment [5] it was greater than 20000 nM; in experiment [7] (Table 6.1), 30 nM; in experiment [8] (setting [11]) it was 0.24 nM. Further, the “fold increase in HGFA potency” value in [7] (versus parent compound) is reported as 2 fold.

On to `CC(=O)N[C@@H](CO)C(=O)N[C@@H](CCCCN)C(=O)N[C@@H](CC(C)C)C(=O)N[C@@H](CCCNC(=N)N)C(=O)c1nc2ccccc2s1` [Compound 7053, Ac-SKLR(SEQ ID NO: 10)-Kbt], for which the inhibition constant (Ki) in [3] is 1900 nM; in [5], greater than 20000 nM; in [7] (Table 6.1) it was 33 nM; in experiment [8] (setting [11]), 0.16 nM.

Take `CC(=O)N[C@@H](CCCCN)C(=O)N[C@@H](CCCNC(=N)N)C(=O)N[C@@H](CC(C)C)C(=O)N[C@@H](CCCNC(=N)N)C(=O)c1nc2ccccc2s1` [Compound 7054, Ac-KRLR(SEQ ID NO: 8)-Kbt]: the Ki is 91.9 nM in experiment [3] (setting [12]), greater than 20000 nM in experiment [5] (setting [13]), 6 nM in [7] (Table 6.1) and 0.82 nM in experiment [8] (setting [11]). The “MRC5-mediated migration and invasion” value in experiment [9] is recorded as “abrogate”.

For `CC(=O)N[C@@H](Cc1ccccc1)C(=O)N[C@@H](CC(C)C)C(=O)N[C@@H](Cc1ccccc1)C(=O)N[C@@H](CCCNC(=N)N)C(=O)c1nc2ccccc2s1` [Compound 7063, Ac-FLFR(SEQ ID NO: 19)-Kbt], the inhibitory constant (Ki) in experiment [3] (setting [12]) is 13.1 nM; in [5] (setting [13]), greater than 20000 nM; in experiment [6] (Table 6.1) it was 3.6 nM; in experiment [7] (Table 6.1), 114 nM; in experiment [8] (setting [11]), 0.27 nM.

`CC(C)C[C@H](NC(=O)[C@H](CCCNC(=N)N)NC(=O)[C@@H](N)Cc1c[nH]c2ccccc12)C(=O)N[C@@H](CCCNC(=N)N)C(=O)c1nc2ccccc2s1` [Compound 7117, H-WRLR(SEQ ID NO: 9)-Kbt]: the Ki in experiment [3] (setting [12]) is 2.4 nM; in experiment [5] (setting [13]), 4890 nM; in experiment [7] (Table 6.1), 8.75 nM; in [8] (setting [11]), 0.96 nM.

For the molecule `COC(=O)c1ccc(CNC(=O)c2ccc3nc(C(=O)[C@H](CCCNC(=N)N)NC(=O)[C@H](CC(C)C)NC(=O)[C@H](CCCNC(=N)N)NC(=O)[C@H](CCCCN)NC(C)=O)sc3c2)cc1` [Compound 7158, Ac-KRLR(SEQ ID NO: 8)-kbt-Benzyl-4-COOMe], the Ki stood at 9 nM in experiment [3] (setting [12]), 20.9 nM in [5] (setting [13]), 5.85 nM in experiment [7] (Table 6.1) and 0.05 nM in [8] (setting [11]).

As for `COC(=O)c1cccc(CNC(=O)c2ccc3nc(C(=O)[C@H](CCCNC(=N)N)NC(=O)[C@H](CC(C)C)NC(=O)[C@H](CCCNC(=N)N)NC(=O)[C@H](CCCCN)NC(C)=O)sc3c2)c1` [Compound 7159, Ac-KRLR(SEQ ID NO: 8)-kbt-Benzyl-3-COOMe], the inhibitory constant (Ki) came out at 14 nM in [3] (setting [12]), 85.4 nM in [5] (setting [13]), 7.76 nM in experiment [7] (Table 6.1) and 0.04 nM in experiment [8] (setting [11]).

With `N=C(N)NCCC[C@H](NC(=O)[C@H](Cc1ccccc1)NC(=O)OCC1c2ccccc2-c2ccccc21)C(=O)c1nc2ccccc2s1` [Compound 7187-14, Fmoc-FR-kbt], the inhibitory constant (Ki) in experiment [3] (setting [12]) is 28.4 nM; in experiment [5] (setting [13]), greater than 2000 nM; in [7] (Table 6.1), 964 nM; in [8] (setting [11]) it was 14.3 nM.

Turning to Ac-His(3Bom)-Agp-hLeu-Arg-ACC, the Km in experiment [10] is 52.1 µM.

One may read the Km as the substrate concentration at which the rate is half of its maximum. As a reminder, the Ki is the equilibrium dissociation constant of an inhibitor or competing ligand from its target.
